Reference: ChEMBL document CHEMBL1926601, “Persipeptides A and B, two cyclic peptides from Streptomyces sp. UTMC 1154” (Bioorg Med Chem, 2012)
Activity calls are given as the source filed them. No cut-off for these calls is given here. Square brackets hold non-standard residues; d marks the D form. Peptide text beside a SMILES is read from it. NMeF = CN[C@@H](Cc1ccccc1)C(=O)O; NMeV = CN[C@H](C(=O)O)C(C)C

Columns and labels:
[1] = test system: Staphylococcus aureus; experiment: Antimicrobial activity against Staphylococcus aureus at 100 ug/ml by agar diffusion test; format: functional, organism-based
[2] = test system: Staphylococcus aureus; experiment: Antimicrobial activity against methicillin-resistant Staphylococcus aureus at 100 ug/ml by agar diffusion test; format: functional, organism-based

| SMILES | Activity [1] | Activity [2] |
| --- | --- | --- |
| CC(C)[C@@H]1NC(=O)[C@H](C(C)C)N(C)C(=O)[C@H](C(C)C)NC(=O)[C@H](Cc2ccccc2)N(C)C(=O)[C@H](Cc2ccccc2)NC1=O (cyclo(F[NMeF]V[NMeV]V)) | inactive | inactive |
| CC(C)[C@@H]1NC(=O)[C@H](Cc2ccccc2)N(C)C(=O)[C@H](C(C)C)NC(=O)[C@H](C(C)C)N(C)C(=O)[C@H](Cc2ccccc2)NC1=O (cyclo(F[NMeV]V[NMeF]V)) | inactive | inactive |
